The source made the active and inactive calls.
Key:
[1] = inhibitors of intracellular T. cruzi replication, confirmation, NIH3T3 host cells, beta-gal luminescence (AID 2044); format: functional, cell-based;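 further: intracellular parasites grown in NIH/3T3 mouse fibroblasts as host cells; luminescent beta-galactosidase reporter signal from transgenic T. cruzi replicating inside host cells; inhibitors lower the luminescence signal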
[2] = cytotoxicity toward NIH3T3 fibroblasts, dose response, counter-screen, cell-based, ATP luminescence, mouse fibroblasts (AID 2010); format: functional;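 further: cells exposed to compound for about 90 hours before reading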
[3] = target: DNA dC->dU-editing enzyme APOBEC-3A (Homo sapiens, UniProt P31941); assay: Dose Response confirmation of small molecule APOBEC3A DNA Deaminase Inhibitors via a fluorescence-based single-stranded DNA deaminase assay. [Related pubchem assays (depositor defined):AID493011, AID493024]; format: functional
DNA dC->dU-editing enzyme APOBEC-3A, sequence (P31941 whole entry): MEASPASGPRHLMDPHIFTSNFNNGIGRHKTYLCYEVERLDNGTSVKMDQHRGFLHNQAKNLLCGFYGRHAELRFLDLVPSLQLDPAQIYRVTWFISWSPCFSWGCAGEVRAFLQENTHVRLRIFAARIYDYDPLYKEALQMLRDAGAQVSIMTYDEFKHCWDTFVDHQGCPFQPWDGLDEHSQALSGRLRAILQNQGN

[4] = target: DNA dC->dU-editing enzyme APOBEC-3G (Homo sapiens, UniProt Q9HC16); format: functional;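 further: Dose-response counterscreen measuring inhibition of APOBEC3G DNA deaminase activity, run while confirming APOBEC3A inhibitors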
DNA dC->dU-editing enzyme APOBEC-3G, sequence (Q9HC16 whole entry): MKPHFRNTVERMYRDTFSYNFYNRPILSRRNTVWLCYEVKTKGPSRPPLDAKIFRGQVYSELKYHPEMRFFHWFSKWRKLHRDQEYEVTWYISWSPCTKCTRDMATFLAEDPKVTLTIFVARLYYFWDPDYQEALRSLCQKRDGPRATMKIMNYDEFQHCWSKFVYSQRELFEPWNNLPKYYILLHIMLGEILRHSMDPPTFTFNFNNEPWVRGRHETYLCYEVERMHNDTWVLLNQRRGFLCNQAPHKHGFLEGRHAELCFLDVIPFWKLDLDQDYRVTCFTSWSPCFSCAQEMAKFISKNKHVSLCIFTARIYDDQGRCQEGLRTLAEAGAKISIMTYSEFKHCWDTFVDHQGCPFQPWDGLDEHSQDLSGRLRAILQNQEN

[5] = target: T1, Kappa-type opioid receptor (Homo sapiens, UniProt P41145); assay: SAR analysis of small molecule antagonists of the kappa opioid receptor via a luminescent beta-arrestin assay - Set 4. [Related pubchem assays (depositor defined):AID1777, AID1778, AID1785, AID1786, AID1966, AID2133, AID2136, AID2285]; format: functional
T1 sequence (P41145 whole entry): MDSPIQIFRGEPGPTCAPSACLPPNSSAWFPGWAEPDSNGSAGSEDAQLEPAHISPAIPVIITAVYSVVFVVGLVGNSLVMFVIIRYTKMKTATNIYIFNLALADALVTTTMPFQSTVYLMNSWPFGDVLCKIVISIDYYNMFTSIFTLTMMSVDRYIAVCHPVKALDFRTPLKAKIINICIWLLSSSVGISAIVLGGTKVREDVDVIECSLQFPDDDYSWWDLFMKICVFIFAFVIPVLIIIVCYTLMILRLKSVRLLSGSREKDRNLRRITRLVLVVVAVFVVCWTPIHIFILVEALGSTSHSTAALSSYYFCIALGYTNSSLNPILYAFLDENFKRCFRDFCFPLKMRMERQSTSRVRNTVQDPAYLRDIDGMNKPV

[6] = target: T1, Kappa-type opioid receptor; assay: SAR analysis of small molecule antagonists of the kappa opioid receptor via a luminescent beta-arrestin assay - Set 5. [Related pubchem assays (depositor defined):AID1778, AID1785]; format: functional
[7] = target: Sphingosine 1-phosphate receptor 1 (Homo sapiens, UniProt P21453); assay: Fluorescence-based counterscreen assay for S1P4 agonists: Cell-based dose response high throughput screening assay to identify agonists of the Sphingosine 1-Phosphate Receptor 1 (S1P1). [Related pubchem assays (depositor defined):AID1509, AID1523, AID1801, AID463107, AID463118, AID463119, AID463122, AID463123, AID463129, AID463225, AID504400, AID504460]; format: functional
Sphingosine 1-phosphate receptor 1, sequence (P21453 whole entry): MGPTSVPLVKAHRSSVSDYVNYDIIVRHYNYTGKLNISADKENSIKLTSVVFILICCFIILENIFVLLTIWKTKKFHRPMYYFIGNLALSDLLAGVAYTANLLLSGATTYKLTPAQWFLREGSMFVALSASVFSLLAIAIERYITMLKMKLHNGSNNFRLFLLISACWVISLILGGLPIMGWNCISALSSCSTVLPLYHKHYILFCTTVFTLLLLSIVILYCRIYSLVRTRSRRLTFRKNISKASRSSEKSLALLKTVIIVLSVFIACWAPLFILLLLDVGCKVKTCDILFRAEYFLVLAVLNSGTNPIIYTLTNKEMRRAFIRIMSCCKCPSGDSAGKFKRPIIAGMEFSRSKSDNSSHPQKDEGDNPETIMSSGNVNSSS

[8] = target: T2, Sphingosine 1-phosphate receptor 4 (Homo sapiens, UniProt O95977); assay: Fluorescence dose response cell-based high throughput screening assay for agonists of the Sphingosine 1-Phosphate Receptor 4 (S1P4). [Related pubchem assays: 1509 (Primary screen.), 1523 (Confirmation screen in triplicates.)]; format: functional
T2 sequence (O95977 whole entry): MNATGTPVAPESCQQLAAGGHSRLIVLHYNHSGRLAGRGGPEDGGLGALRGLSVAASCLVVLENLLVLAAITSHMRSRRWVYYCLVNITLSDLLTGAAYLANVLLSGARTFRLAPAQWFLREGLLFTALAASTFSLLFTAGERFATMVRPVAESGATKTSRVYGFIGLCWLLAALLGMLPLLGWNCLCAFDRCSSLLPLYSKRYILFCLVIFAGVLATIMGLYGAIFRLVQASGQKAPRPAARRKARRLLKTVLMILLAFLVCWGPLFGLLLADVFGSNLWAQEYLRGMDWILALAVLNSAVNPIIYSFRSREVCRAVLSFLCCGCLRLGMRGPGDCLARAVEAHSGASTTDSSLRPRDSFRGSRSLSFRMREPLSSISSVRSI

[9] = target: T3, G-protein coupled receptor 35 (Homo sapiens, UniProt Q9HC97); assay: SAR analysis of Agonists of the GPR35 Receptor using an Image-Based Assay - Set 4. [Related pubchem assays (depositor defined):AID2013, AID2026]; format: functional
T3 sequence (Q9HC97 whole entry): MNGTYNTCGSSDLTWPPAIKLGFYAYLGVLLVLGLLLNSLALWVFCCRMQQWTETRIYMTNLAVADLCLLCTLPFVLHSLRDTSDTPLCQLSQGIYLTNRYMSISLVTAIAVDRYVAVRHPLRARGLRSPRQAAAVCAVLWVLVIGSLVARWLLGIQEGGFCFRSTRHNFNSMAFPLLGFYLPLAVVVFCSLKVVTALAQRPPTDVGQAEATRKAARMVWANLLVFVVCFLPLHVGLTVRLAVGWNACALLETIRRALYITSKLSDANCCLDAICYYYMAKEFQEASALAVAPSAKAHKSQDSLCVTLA

[10] = target: T4, Cannabinoid receptor 1 (Homo sapiens, UniProt P21554); assay: SAR analysis of agonists of the Cannabinoid Receptor 1 using an Image-Based Assay - Set 4. [Related pubchem assays (depositor defined):AID2013, AID2026]; format: functional
T4 sequence (P21554 whole entry): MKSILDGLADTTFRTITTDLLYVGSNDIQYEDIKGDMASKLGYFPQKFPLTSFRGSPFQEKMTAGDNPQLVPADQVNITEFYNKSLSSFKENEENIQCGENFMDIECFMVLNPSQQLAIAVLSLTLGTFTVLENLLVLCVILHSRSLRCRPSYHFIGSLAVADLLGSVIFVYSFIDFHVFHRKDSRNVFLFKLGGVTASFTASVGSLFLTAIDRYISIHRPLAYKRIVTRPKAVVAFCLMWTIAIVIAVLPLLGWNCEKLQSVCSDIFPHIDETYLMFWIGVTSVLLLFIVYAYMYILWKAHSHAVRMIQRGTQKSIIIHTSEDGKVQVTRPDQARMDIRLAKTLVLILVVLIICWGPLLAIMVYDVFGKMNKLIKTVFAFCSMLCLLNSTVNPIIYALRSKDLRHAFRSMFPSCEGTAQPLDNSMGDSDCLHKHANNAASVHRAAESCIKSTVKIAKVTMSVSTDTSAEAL

[11] = target: T3, G-protein coupled receptor 35; assay: SAR analysis of Antagonists of the GPR35 Receptor using an Image-Based Assay - Set 6. [Related pubchem assays (depositor defined):AID2013, AID2026]; format: functional
[12] = target: T4, Cannabinoid receptor 1; assay: SAR analysis of antagonists of the Cannabinoid Receptor 1 using an Image-Based Assay - Set 4. [Related pubchem assays (depositor defined):AID2013, AID2026]; format: functional
[13] = target: G-protein coupled receptor 55 (Homo sapiens, UniProt Q9Y2T6); assay: SAR Analysis of Selective Antagonists of GPR55 using an Image-Based Assay - Set 4. [Related pubchem assays (depositor defined):AID2013, AID2026]; format: functional;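 further: antagonism of response to 5 µM lysophosphatidylinositol agonist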
G-protein coupled receptor 55, sequence (Q9Y2T6 whole entry): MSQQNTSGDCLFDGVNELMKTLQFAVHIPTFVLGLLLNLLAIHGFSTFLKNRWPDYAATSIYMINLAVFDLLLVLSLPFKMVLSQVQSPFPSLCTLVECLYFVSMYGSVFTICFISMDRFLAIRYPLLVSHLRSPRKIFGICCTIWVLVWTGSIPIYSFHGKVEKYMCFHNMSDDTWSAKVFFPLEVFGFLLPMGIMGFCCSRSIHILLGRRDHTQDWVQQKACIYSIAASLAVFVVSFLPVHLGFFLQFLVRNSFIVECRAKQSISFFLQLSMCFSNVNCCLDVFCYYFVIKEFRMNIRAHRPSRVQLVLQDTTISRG

[14] = target: T5, Cannabinoid receptor 2 (Homo sapiens, UniProt P34972); assay: SAR analysis of antagonists of the Cannabinoid Receptor 2 using an Image-Based Assay - Set 3. [Related pubchem assays (depositor defined):AID2013, AID2026]; format: functional
T5 sequence (P34972 whole entry): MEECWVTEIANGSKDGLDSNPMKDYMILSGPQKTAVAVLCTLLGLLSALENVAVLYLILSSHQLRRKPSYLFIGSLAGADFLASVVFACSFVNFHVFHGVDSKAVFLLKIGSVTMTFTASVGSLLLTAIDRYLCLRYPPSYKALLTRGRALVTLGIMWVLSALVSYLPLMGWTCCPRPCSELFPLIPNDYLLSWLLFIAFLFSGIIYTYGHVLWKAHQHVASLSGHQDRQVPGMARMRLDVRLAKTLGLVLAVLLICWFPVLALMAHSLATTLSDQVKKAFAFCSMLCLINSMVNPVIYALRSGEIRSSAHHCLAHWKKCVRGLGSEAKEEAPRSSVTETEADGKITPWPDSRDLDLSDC

[15] = target: T5, Cannabinoid receptor 2; assay: SAR analysis of agonists of the Cannabinoid Receptor 2 using an Image-Based Assay - Set 3. [Related pubchem assays (depositor defined):AID2013, AID2026]; format: functional

## CCN1CCN(c2ccc(S(=O)(=O)N3CCCCC3)cc2NC(=O)COc2ccc(F)cc2Cl)CC1
[1]
  EC50: 0.474 µM (active)
[2]
  EC50: > 60 µM (not active)
[3]
  IC50: 3.24 µM (active)
[4]
  IC50: 5.24 µM (active)

## COc1ccc(CN(CCNC(=O)c2cccc(CNS(=O)(=O)c3ccc(C)cc3)c2)C(C)C)cc1
[5]
  IC50: > 20 µM (inactive)
[6]
  IC50: 9.03 µM (active)

## Clc1ccc(C2=NN(c3ccccc3)C(c3ccco3)C2)cc1 (stereo not given)
[7]
  EC50: > 5.53 µM (inactive)
[8]
  EC50: > 16.6 µM (not active)

## CCN(CC)S(=O)(=O)c1ccc(NC(=O)c2cc(-c3cccs3)nc3ccccc23)cc1
[9]
  EC50: > 32 µM (inactive)
[10]
  EC50: > 32 µM (inactive)
[11]
  IC50: > 32 µM (inactive)
[12]
  IC50: 0.427 µM (active)
[13]
  IC50: > 32 µM (inactive)
[14]
  IC50: > 32 µM (inactive)
[15]
  EC50: > 32 µM (inactive)

Reference: ChEMBL document CHEMBL1201862, “PubChem BioAssay data set” (2004)
